The results in this text go back to patent US5846944A (priority 1997, dated 1998).

The subject of series [1] is NIDDM, Zucker diabetic fatty rat (ZDF). Put plainly: NIDDM in Zucker diabetic fatty rats (Example 5). In kind it is in vivo. The note with it: SDG 22 mg/kg daily orally in drinking water; two rats examined; two untreated rats showed clear signs. The protocol:
Oxidative stress was assessed by measuring lipid peroxidation product malondialdehyde (MDA) a measure of levels of oxygen radicals, and tissue chemiluminescence (CL) an index of antioxidant reserve in blood and pancreatic tissue. Male 5-6 weeks old ZDF and age match Zucker lean control (ZLC) rats were obtained from Charles River, St. Constant, Quebec, Canada.
Rats were tested for glucosuria to establish diabetes at 5-6 weeks before they were assigned to various groups. None of the rats had glucosuria at this age. […] At the end of the protocol, under anesthesia, blood samples were taken to measure serum glucose and MDA, and pancreas were removed to assess pancreatic MDA and antioxidant reserve.

Series [2] has as its system Atherosclerotic plaques, New Zealand White rabbits. Put plainly: Development of atherosclerotic plaques in rabbits on experimental diets (Example 1). The format is in vivo. The note with it: control diet without cholesterol; flaxseed 15% of diet or SDG 15 mg/kg oral; 2 months. The protocol: (§1) Experiments were carried out on six to eight week old female New Zealand white rabbits weighing between 1.8 and 2.0 kg. All procedures relating to the care and welfare of test animals within this experimental protocol conformed to a Standard Operating Procedure (SOP) approved by the Council on Animal Care, University of Saskatchewan, Saskatoon, Saskatchewan, Canada.
(§2) Blood samples for measurement of triglycerides (TG), total cholesterol (TC), low density lipoprotein cholesterol (LDL-C), very-low density lipoprotein cholesterol (VLDL-C), and high density lipoprotein cholesterol (HDL-C) were taken before the animals were assigned to the experimental diet (T=0), and after 1 (T=1) and 2 months (T=2) on the experimental diet. The rabbits were sacrificed under pentabarbital anesthesia at the end of 2 months. The aorta was removed for the assessment of atherosclerotic plaques.
Much has been made of the importance of the composition of certain dietary fats toward health, particularly in relation to the degree of saturation of the fatty acid composition of the triglycerides.

Series [3] concerns streptozotocin-induced diabetes mellitus, Sprague-Dawley rats. Kind of series: Streptozotocin-induced diabetes mellitus in rats (Example 3). The format is in vivo. The note with it: for Plasma Glucose: mean + S.E., P<0.05 vs Group I and vs Group II. The procedure:
Experimental diabetes mellitus was produced in Sprague-Dawley rats by injecting streptozotocin (STZ, 65 mg/kg) intravenously. Diagnosis of diabetes mellitus was established by testing for the presence of glucosuria with Ames Multi Stix (Miles Canada Inc., Etobicoke, Ontario) on the 3rd day after streptozotocin administration. The rats were divided into 4 groups.

Series [4] deals with hypercholesterolemic atherosclerosis, New Zealand White rabbits. Kind of series: Comparison with other compounds: hypercholesterolemic atherosclerosis and total cholesterol in rabbits. The format is in vivo. The note with it: compared with Vitamin E. The text has this:
The effect of Probucol on reducing atherosclerosis varied between 15-45%, depending upon the extent of the hypercholesterolemia.
The mechanism of action for Vitamin E is now generally accepted as preventing the development of hypercholesterolemic atherosclerosis through its antioxidant activity and its ability to scavenge free radicals in the bloodstream.

Series [5] is described as follows: Body weight of hypercholesterolemic rabbits (Example 4). In kind it is in vivo, New Zealand White rabbits. The note with it: + 1% cholesterol. The protocol:
as §1, §2

The subject of series [6] is endotoxic shock, anesthetized dogs. Kind of series: Endotoxic-shock-induced changes in cardiovascular function, contractility, MDA and antioxidant reserve in anesthetized dogs (Example 2). The format is in vivo. The note with it: SDG 10 mg/kg i.v. 15 min prior to endotoxin 5 mg/kg i.v. The procedure:
The dogs were divided into three groups. Group I, (sham 3 hours, n=5). Group II, (ET, n=9), these dogs received endotoxin (5 mg/kg, intravenously). […] Mean aortic blood pressure (mAo), cardiac index (CI) a measure of cardiac function, and cardiac contractility (dp/dt at CPIP/PAW) were measured before (0 min) and at 30 min, 60 min, 90 min, 120 min and 180 min after endotoxin administration. At the end of 3 hours of experiment heart was removed for measurement of MDA and antioxidant reserve. Cardiac function and contractility were measured. Left ventricular MDA (LV-MDA) and left ventricular chemiluminescence (LV-CL) a measure of antioxidant reserve were also estimated.

Series [7] concerns diabetes mellitus, BBdp rats. Put plainly: Spontaneously developing IDDM in diabetic prone BB (BBdp) rats (Example 5). The format is in vivo. The note with it: SDG 22 mg/kg daily. The protocol:
Two animal models of IDDM used were: streptozotocin-induced and diabetic prone (dp) BB rats (BBdp). The Zucker diabetic fatty rat (ZDF), an animal model closely resembling human NIDDM, was used for NIDDM.
BBdp rats develop diabetes melliuts spontaneously. […] Serum malondialdehyde (MDA) a measure of levels of oxygen radicals, and antioxidant reserve [pancreatic-chemiluminescence (Pancreatic-CL)] were assessed in blood and pancreas. Male 35-day old BBdp and age matched nondiabetic prone BE (BBn) rats were obtained from Animal Resources Division, Health Protection Branch (Ottawa, Canada).
Two rats from BBn and 4 rats from BBdp at the age of 35 days were sacrificed to measure serum glucose and MDA, and pancreatic MDA and antioxidant reserve. […] Diagnosis of diabetes mellitus was established by testing for the presence of glucosuria which was done every altenate day for 120 days or until glucosuria appeared. Once they developed diabetes or at the end of 120 days rats were anesthetized with nembutal sodium. Blood samples were taken to measure serum glucose and MDA, and pancreas were removed to assess pancreatic MDA and antioxidant reserve. None of the BBdp rats tested positive for glucosuria at 5 weeks and at that age the serum glucose in BBn and BBdp rats were 8.75±0.63 and 10.03±0.65 mmoles/L respectively.

[8] abbreviates: SDG 22 mg/kg orally for 3 days + STZ 65 mg/kg i.v., 12 rats/group.
Setting [9] is: SDG 44 mg/kg orally for 3 days + STZ 65 mg/kg i.v., 10 rats/group.

The structures appear in SMILES notation.

As to `COc1cc(CC(COC2OC(CO)C(O)C(O)C2O)C(COC2OC(CO)C(O)C(O)C2O)Cc2ccc(O)c(OC)c2)ccc1O` (centres unmarked) [SDG, secoisolariciresinol diglucoside], the signs of diabetes result in series [1] is “showed no signs of diabetes”. In series [2], the “Atherosclerotic plaques (% of total internal surface area)” value was 0 % of total internal surface ar. Further, the figures for the “# Rats Developing Diabetes” value in series [3] (setting [8]) and in series [3] (setting [9]) were 2 rats and 1 rats, respectively. In addition, the “percent of rats developing diabetes mellitus” value in series [3] (setting [8]) was 16.6%; in series [3] (setting [9]), 10%. The “Plasma Glucose” value came to 9.63 ± 0.71 mmol/L in series [3] (SDG 22 mg/kg orally for 3 days + STZ) and 10.01 ± 0.76 mmol/L in series [3] (SDG 44 mg/kg orally for 3 days + STZ). Moreover, in series [3] (SDG 44 mg/kg), the “preventing the development of diabetes, 44 mg/kg compared with 22 mg/kg” value is “more effective than in the dose of 22 mg/kg”. The “plasma glucose levels compared with streptozotocin-treated group” value in series [3] (SDG 22 and 44 mg/kg) is “much lower than those in streptozotocin-treated group”. In series [3] (SDG 22 and 44 mg/kg, overall), the “prevention of the development of STZ-induced diabetes mellitus” value is “approximately 81%”. Moreover, the “reduction of hypercholesterolemic atherosclerosis and of total blood cholesterol” value in series [4] is reported as “accomplishes both”. Moreover, the Body weight in series [5] (0 months, SDG 5 mg/kg or SDG (89% pure) 11.24 mg/kg group) is recorded as 1.47 ± 0.02 kg; in series [5] (1 month, SDG 5 mg/kg or SDG (89% pure) 11.24 mg/kg, orally daily), 2.45 ± 0.04 kg. Besides, the “Mean aortic blood pressure (mAo), ET-induced fall” value in series [6] is on record as “prevented the ET-induced fall in mAO up to 30 min”. Besides, the “Left ventricular MDA (LV-MDA), ET-induced increase” value in series [6] (3 hours) is “prevented the ET-induced increase in LV-MDA”. Further, in series [6] (3 hours), the “antioxidant reserve (LV-CL), ET-induced decrease” value is “prevented the ET-induced decrease in antioxidant reserve”. Besides, in series [7] (orally in drinking water, up to 120 days, untreated BBdp 72.7%), the “rats that developed diabetes” value was found to be 21.4%. Besides, the “prevention of the development of diabetes” value in series [7] (orally in drinking water, vs untreated BBdp) worked out at 70.55%. Also, the “Pancreatic / serum MDA” value in series [7] (both nondiabetic and diabetic, vs untreated BBdp) is “lower in the SDG-treated group in both nondiabetic and diabetic as compared to untreated BBdp rats”. Further, in series [7] (compared with nondiabetic SDG-treated BBdp), the “serum glucose, rats that developed diabetes” value was “higher than those not developing diabetes in this group”. Further, the onset of diabetes result in series [7] (rats that developed diabetes) was “delayed the onset of diabetes in ones that developed diabetes”. The “Pancreatic antioxidant reserve (Pancreatic-CL)” value in series [7] (untreated BBdp vs control or SDG-treated group) was “slightly lower in the untreated group as compared to the control or SDG-treated group but were not significant”.
